The numbers were not newly measured in US6420311B1, “Polyether diamine—based surfactant adjuvants and compositions thereof” (Huntsman Petrochemical Corporation, priority 1999, dated 2002), which cites them from elsewhere.

The conditions of this data set: free acid form.

For `O=C(O)CNCP(=O)(O)O` [glyphosate, N-phosphonomethylglycine], the water solubility result is “low”.
